From article PMC6274048, “Chemical Constituents of Malaysian U. cordata var. ferruginea and Their in Vitro α-Glucosidase Inhibitory Activities” (Molecules, 2016)
Where two headings read alike, the source gives them in different places.

Target: α-glucosidase enzyme (type 1 from Baker's yeast) (Saccharomyces cerevisiae, UniProt P53341)
Test: α-Glucosidase inhibitory assay (p-nitrophenyl-α-D-glucopyranoside substrate, absorbance at 405 nm)
Assay type: biochemical
Conditions: for inhibition at 1000 µg/mL: Concentration: 1 mg/mL, Means ± SD, n = 3; for IC50: α-glucosidase inhibition
Experimental: The method of α-glucosidase inhibitory assay was adopted from Ahmad et al. with minor modification. The plant samples (extract/fraction/compound) were prepared in 5% DMSO at a concentration of 1000 μg/mL. A series of dilutions for each sample were prepared to give concentrations of 1000, 500, 250, 125, 62.5 and 31.25 μg/mL. Then, about 10 μL of sample, 20 μL of α-glucosidase enzyme solution (type 1 from Baker’s yeast), phosphate buffer saline (40 μL at pH 6.5) and deionized water (20 μL) were mixed in a 96-well plate. The mixture was incubated at 37 °C. After 10 min, 10 μL of 20 mM p-nitrophenyl-α-D-glucopyranoside solution was added into the mixture and absorbance at time 0 min was measured by the spectrophotometer (λ = 405 nm). Then, the reaction mixture was incubated at 37 °C for 30 min and the absorbance was measured. […] Experiments were performed in triplicates with three independent experiments. The percentage inhibitory activity was calculated using the following equation: (1) Inhibition (%)=(A30 min–A0 min) control – (A30 min – A0 min) sample × 100/(A30 min–A0 min) control where A is the absorbance of mixture measured at 405 nm.

Sequence of α-glucosidase enzyme (type 1 from Baker's yeast) (P53341 whole entry): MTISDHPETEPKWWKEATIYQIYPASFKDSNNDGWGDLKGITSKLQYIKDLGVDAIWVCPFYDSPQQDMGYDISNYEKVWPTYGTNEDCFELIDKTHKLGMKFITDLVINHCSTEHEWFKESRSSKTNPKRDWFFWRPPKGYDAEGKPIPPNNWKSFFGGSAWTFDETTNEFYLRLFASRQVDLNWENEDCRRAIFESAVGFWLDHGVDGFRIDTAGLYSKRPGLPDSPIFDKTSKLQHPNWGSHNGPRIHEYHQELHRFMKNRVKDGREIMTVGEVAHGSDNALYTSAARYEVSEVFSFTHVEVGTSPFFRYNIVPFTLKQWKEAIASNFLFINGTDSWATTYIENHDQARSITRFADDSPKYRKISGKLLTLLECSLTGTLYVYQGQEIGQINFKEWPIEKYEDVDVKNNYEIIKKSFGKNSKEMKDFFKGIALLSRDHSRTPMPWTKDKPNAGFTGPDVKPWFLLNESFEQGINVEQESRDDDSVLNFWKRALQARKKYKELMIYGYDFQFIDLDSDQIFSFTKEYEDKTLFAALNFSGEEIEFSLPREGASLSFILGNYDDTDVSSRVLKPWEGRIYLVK

Compound | inhibition at 1000 µg/mL | IC50 (dilution series 1000-31.25 μg/mL, read-out: IC50 (μg/mL) (converted)) | IC50 (same IC50 in molar units, read-out: IC50)
O=C(O)c1ccc(O)cc1O [2,4-DHBA, 2,4-Dihydroxybenzoic acid] | 78.8 ± 0.4% | 3.56 mM | 3.56 mM
C[C@H]1O[C@H](O[C@H]2[C@H](O)[C@@H](O)[C@@H](O[C@H]3[C@H](O)[C@@H](O)C(O)O[C@@H]3CO)O[C@@H]2CO)[C@H](O)[C@@H](O)[C@@H]1N[C@H]1C=C(CO)[C@@H](O)[C@H](O)[C@H]1O (stereo partly shown) [Acarbose, reference compound] | 90.9 ± 2.7% | – | –
COC(=O)C1=CO[C@@H](O[C@@H]2O[C@H](CO)[C@@H](O)[C@H](O)[C@H]2O)[C@@H]2[C@@H](C)[C@@H](O)C[C@H]12 [Loganin] | 44.9 ± 0.7% | – | –
O=c1c(O)c(-c2ccc(O)c(O)c2)oc2cc(O)cc(O)c12 [Quercetin] | 84.5 ± 0.6% | – | –
COc1cc2ccc(=O)oc2cc1O [Scopoletin] | 34.5 ± 0.4% | – | –
